A short description of data set [1]: The drug is tested on Parabacteroides merdae strain: ATCC43184 for biotransformation. The drug concentrations were measured before and after a 12-h incubation by liquid-chromatography-coupled mass spectrometry (LC–MS). Conditions: 2 µM.
Data set [2] in a line: The drug is tested on Collinsella aerofaciens strain: ATCC25986 for biotransformation. The drug concentrations were measured before and after a 12-h incubation by liquid-chromatography-coupled mass spectrometry (LC–MS). Conditions: 2 µM.
For data set [3] the following is noted: bacteroides fragilis, 12 h, 2 µM.
Description: The drug is tested on Bacteroides fragilis strain: DS-208 for biotransformation. The drug concentrations were measured before and after a 12-h incubation by liquid-chromatography-coupled mass spectrometry (LC–MS)
Data set [4] in a line: The drug is tested on Anaerotruncus colihominis strain: DSM17241 for biotransformation. The drug concentrations were measured before and after a 12-h incubation by liquid-chromatography-coupled mass spectrometry (LC–MS). The settings on record: 2 µM.
Data set [5] can be described thus: The drug is tested on Bifidobacterium ruminantium strain: fecal isolate for biotransformation. The drug concentrations were measured before and after a 12-h incubation by liquid-chromatography-coupled mass spectrometry (LC–MS). The settings on record: 2 µM.
A short description of data set [6]: The drug is tested on Clostridium sp. strain: fecal isolate for biotransformation. The drug concentrations were measured before and after a 12-h incubation by liquid-chromatography-coupled mass spectrometry (LC–MS). The settings on record: 2 µM.
Data set [7] can be described thus: The drug is tested on Ruminococcus torques strain: ATCC27756 for biotransformation. The drug concentrations were measured before and after a 12-h incubation by liquid-chromatography-coupled mass spectrometry (LC–MS). Format: ADME. Details: dose 2 uM, timepoint 0 vs 12 hours. Conditions: 2 µM.
The nature of data set [8]: The drug is tested on Clostridium scindens strain: ATCC35704 for biotransformation. The drug concentrations were measured before and after a 12-h incubation by liquid-chromatography-coupled mass spectrometry (LC–MS). Conditions: 2 µM.
The conditions of data set [9]: bacteroides intestinalis, 12 h, 2 µM.
Description: The drug is tested on Bacteroides intestinalis strain: DSM17393 for biotransformation. The drug concentrations were measured before and after a 12-h incubation by liquid-chromatography-coupled mass spectrometry (LC–MS)
Data set [10] can be described thus: The drug is tested on Bifidobacterium longum subsp. Infantis strain: CCUG52486 for biotransformation. The drug concentrations were measured before and after a 12-h incubation by liquid-chromatography-coupled mass spectrometry (LC–MS). The settings on record: 2 µM.
Data set [11] can be described thus: The drug is tested on Ruminococcus gnavus strain: ATCC29149 for biotransformation. The drug concentrations were measured before and after a 12-h incubation by liquid-chromatography-coupled mass spectrometry (LC–MS). Conditions: mediterraneibacter gnavus, 2 µM.
A short description of data set [12]: The drug is tested on Bacteroides caccae strain: ATCC43185 for biotransformation. The drug concentrations were measured before and after a 12-h incubation by liquid-chromatography-coupled mass spectrometry (LC–MS). Conditions: 2 µM.
The conditions of data set [13]: bacteroides thetaiotaomicron, 12 h, 2 µM.
Description: The drug is tested on Bacteroides thetaiotaomicron strain: VPI-5482 for biotransformation. The drug concentrations were measured before and after a 12-h incubation by liquid-chromatography-coupled mass spectrometry (LC–MS)
For data set [14] the following is noted: bifidobacterium adolescentis, 12 h, 2 µM.
Description: The drug is tested on Bifidobacterium adolescentis strain: ATCC 15703 for biotransformation. The drug concentrations were measured before and after a 12-h incubation by liquid-chromatography-coupled mass spectrometry (LC–MS)
Data set [15] is described as follows: The drug is tested on Dorea formicigenerans strain: ATCC27755 for biotransformation. The drug concentrations were measured before and after a 12-h incubation by liquid-chromatography-coupled mass spectrometry (LC–MS). Conditions: 2 µM.
The conditions of data set [16]: anaerostipes sp., 12 h, 2 µM.
Description: The drug is tested on Anaerostipes sp. strain: fecal isolate for biotransformation. The drug concentrations were measured before and after a 12-h incubation by liquid-chromatography-coupled mass spectrometry (LC–MS)
A short description of data set [17]: The drug is tested on Bacteroides vulgatus strain: ATCC8482 for biotransformation. The drug concentrations were measured before and after a 12-h incubation by liquid-chromatography-coupled mass spectrometry (LC–MS). The settings on record: phocaeicola vulgatus, 2 µM.
The nature of data set [18]: The drug is tested on Ruminococcus lactaris strain: ATCC29176 for biotransformation. The drug concentrations were measured before and after a 12-h incubation by liquid-chromatography-coupled mass spectrometry (LC–MS). Conditions: 2 µM.
For data set [19] the following is noted: parabacteroides johnsonii, 12 h, 2 µM.
Description: The drug is tested on Parabacteroides johnsonii strain: DSM18315 for biotransformation. The drug concentrations were measured before and after a 12-h incubation by liquid-chromatography-coupled mass spectrometry (LC–MS)

Here are results for eight molecules from ChEMBL document CHEMBL5303573, “Mapping human microbiome drug metabolism by gut bacteria and their genes” (Nature, 2019).

Molecules are shown by their SMILES.

Take `COc1cc2nc(N(C)CCCNC(=O)C3CCCO3)nc(N)c2cc1OC` (stereo unspecified) [ALFUZOSIN]: the “Bacterial Biotransformation” value in [1], in [2], in [3], in data set [4], in [5] and in data set [6] was “Compound NOT metabolized” throughout. The “Bacterial Biotransformation” value in data set [7], in data set [8], in data set [9], in data set [10], in [11] and in data set [12] was “Compound NOT metabolized” each time. Further, the “Bacterial Biotransformation” value in data set [13], in data set [14], in [15] and in data set [16] was “Compound NOT metabolized” each time.
Turning to `CCN(C(C)=O)c1cccc(-c2ccnc3c(C#N)cnn23)c1` [ZALEPLON], the “Bacterial Biotransformation” value in data set [2] was “Compound NOT metabolized”; in data set [3], “Compound NOT metabolized”; in data set [4], “Compound NOT metabolized”; in data set [5], “Compound NOT metabolized”; in data set [6], “Compound metabolized”; in data set [7] it was “Compound NOT metabolized”. Moreover, the “Bacterial Biotransformation” value in data set [17] is on record as “Compound metabolized”; in [8], “Compound NOT metabolized”; in data set [9], “Compound NOT metabolized”; in data set [11], “Compound NOT metabolized”; in data set [18], “Compound NOT metabolized”; in data set [15], “Compound NOT metabolized”.
Take `CN1CC(=O)N2[C@H](c3ccc4c(c3)OCO4)c3[nH]c4ccccc4c3C[C@@H]2C1=O`: the “Bacterial Biotransformation” value in data set [1], in [2], in [4], in data set [5], in data set [6] and in data set [7] was “Compound NOT metabolized” in each case. Also, the “Bacterial Biotransformation” value in data set [8], in data set [9], in data set [11], in data set [12], in data set [18] and in data set [14] was “Compound NOT metabolized” each time. For the same molecule, the “Bacterial Biotransformation” value in data set [15] and in data set [16] was “Compound NOT metabolized” throughout.
Turning to `CC(=O)CC(c1ccccc1)c1c(O)c2ccccc2oc1=O` (stereo unspecified) [WARFARIN], the “Bacterial Biotransformation” value in data set [1], in data set [2], in data set [3], in [4], in data set [6] and in data set [7] was “Compound NOT metabolized” throughout. Also, the “Bacterial Biotransformation” value in data set [17] is “Compound metabolized”; in data set [8] it was “Compound NOT metabolized”; in data set [9], “Compound NOT metabolized”; in data set [10], “Compound NOT metabolized”; in data set [11] it was “Compound NOT metabolized”; in data set [12] it was “Compound NOT metabolized”. In addition, the “Bacterial Biotransformation” value in data set [18], in [19], in data set [13], in data set [14], in data set [15] and in data set [16] was “Compound NOT metabolized” in each case.
`Nc1c2c(nc3ccccc13)CCCC2` [TACRINE]: the “Bacterial Biotransformation” value in data set [2], in data set [3], in data set [4], in [5], in data set [6] and in data set [7] was “Compound NOT metabolized” throughout. The “Bacterial Biotransformation” value in [17], in data set [8], in data set [9], in [10], in [11] and in data set [12] was “Compound NOT metabolized” throughout. In addition, the “Bacterial Biotransformation” value in data set [18], in data set [13], in [14], in data set [15] and in [16] was “Compound NOT metabolized” in each case.
Take `O=C(CCCN1CCC2(CC1)C(=O)NCN2c1ccccc1)c1ccc(F)cc1` [SPIPERONE]: the “Bacterial Biotransformation” value in data set [1], in [2], in data set [3], in data set [5], in [6] and in [7] was “Compound NOT metabolized” throughout. Also, the “Bacterial Biotransformation” value in data set [8], in data set [9], in [10], in data set [11], in data set [12] and in data set [18] was “Compound NOT metabolized” throughout. Also, the “Bacterial Biotransformation” value in data set [13], in data set [14], in [15] and in [16] was “Compound NOT metabolized” each time.
Consider `COC1=CC(=O)C[C@@H](C)[C@]12Oc1c(Cl)c(OC)cc(OC)c1C2=O` [GRISEOFULVIN], for which the “Bacterial Biotransformation” value was “Compound metabolized” in data set [1]; “Compound NOT metabolized” in [2]; “Compound metabolized” in [3]; “Compound NOT metabolized” in [4]; “Compound NOT metabolized” in [5]; “Compound metabolized” in data set [6]. In addition, the “Bacterial Biotransformation” value was “Compound NOT metabolized” in data set [7]; “Compound metabolized” in [17]; “Compound NOT metabolized” in [8]; “Compound NOT metabolized” in data set [10]; “Compound metabolized” in data set [11]; “Compound NOT metabolized” in data set [12]. Further, the “Bacterial Biotransformation” value is “Compound metabolized” in [13], “Compound NOT metabolized” in data set [14], “Compound NOT metabolized” in [15] and “Compound NOT metabolized” in data set [16].
Turning to `Br.CN1CCC[C@@H]1Cc1c[nH]c2ccc(CCS(=O)(=O)c3ccccc3)cc12` [ELETRIPTAN HYDROBROMIDE], the “Bacterial Biotransformation” value in data set [1], in data set [2], in data set [3], in [4], in data set [5] and in [6] was “Compound NOT metabolized” each time. Further, the “Bacterial Biotransformation” value in [7], in [17], in data set [8], in data set [9], in [10] and in data set [11] was “Compound NOT metabolized” in each case. Also, the “Bacterial Biotransformation” value in data set [12], in data set [18], in data set [14], in [15] and in data set [16] was “Compound NOT metabolized” in each case.
